How the values were obtained:
[1] = test system: patient with Parkinson's disease; test: Bright light therapy plus oral atenolol in patients with Parkinson's disease; type: in vivo, human
Description: One patient, diagnosed 3 years earlier with Parkinson's disease, was exposed to bright light therapy (1500 lux) for two, 1 hour sessions per day, one before retiring and one immediately upon arising to antagonize melatonin secretion. This patient was also prescribed 50 mg of the β-noradrenergic antagonist, Atenolol, before going to bed. The patient's performance on motor tests and their body weight were measured before treatment commenced and 2 weeks later. A second patient, diagnosed with Parkinson's disease at least 10 years previously, was tested on the same tests as the first patient.

[2] = test system: marmosets made Parkinsonian with the neurotoxin MPTP; test: Oral ML-23 in marmosets made Parkinsonian with MPTP (blinded experiment); type: in vivo
Description: The ML-23 formulation was prepared by dissolving ML-23 in 100% DSMO (dimethylsulfoxide 0.7 ml) and then making up to volume (2.3 ml) with soy bean oil for oral administration.

6-OHDA treated rats = test: Melatonin antagonist therapy in the 6-OHDA rat model (12 hr light/12 hr dark); type: in vivo
Description: (§1) After several days of control observations, animals were injected bilaterally with 2 μl of an 8 μg/μl solution of 6-OHDA. Body weight was measured each day just after the onset of the light cycle and motor performance was measured by assessing the performance of animals in the open field and on three tests routinely used to assess motor function. Open field activity was measured in a PVC box fitted with infrared sensors. The number of beams broken during a 10 minute test period was registered. The three reflex tests employed were latency to retract a limb elevated 25 cm above the surface of the test area, latency to step up or down from a raised platform when the rear torso was elevated 30 cm above the test area surface and latency to step outside a prescribed area.
The compound ML-23 was tested in the 6-OHDA model described in Example 1 using a 12 hr light/12 hr dark cycle. Briefly, animals were subject to 13 days controlled observation, on day 14 they were injected with 6-OHDA. Animals in the treatment group were given melatonin antagonist (ML-23 in DMSO (3 mg per mL)) therapy (3 mg/kg/ml, interperitoneal injection (ip)) once on the day of 6-OHDA injection and then twice daily for the 3 subsequent days.
A second melatonin antagonist, S-20928, was tested in the 6-OHDA model described in Examples 1 and 7.

[3] = test system: patients suffering from Parkinson's disease; conditions: cited from earlier work
[4] = test system: rats receiving intraperitoneal injections of MPTP; test: Intracerebroventricular melatonin implants in the MPTP rat model; type: in vivo
Description: The rats were implanted with intracerebral melatonin pellets or inert nylon as described in Example 3 with the exception that they were not implanted with intrahypothalamic cannulae. After the control performance was assessed, all animals received intraperitoneal injections of MPTP on day 4 (7 mg/kg/i.p.). Given that the effects of MPTP are less prolonged and traumatic than 6-OHDA, this provided an opportunity to study the phenomenon of recovery. Body weight was measured daily and motor performance was measured 1 h and 2 days after injection.

[5] = test system: rats receiving intracerebral injections of 6-OHDA; test: Intracerebroventricular melatonin implants in the 6-OHDA rat model; type: in vivo
Description: as §1
In order to produce a sustained central release of melatonin, Regulin® pellets were implanted into the left cerebral ventricle of rats at the time of cannulation of the posterior, lateral hypothalamus (PLH). Control rats were implanted with inert nylon pellets of the same dimensions. […] Animals were cannulated and tested as described in Example 1.

[6] = ML-23 3 mg/kg ip, once on day of 6-OHDA then twice daily for 3 days

Structure (SMILES): CC(C)NCC(O)COc1ccc(CC(N)=O)cc1 (stereo not shown) [Atenolol]
- time taken to walk a 3 meter path and return ([1]; first patient, after 2 weeks of bright light (1500 lux, two 1 hour sessions per day) plus Atenolol 50 mg, 31.3 seconds before treatment): 13.5 s
- gain in body weight ([1]; first patient, after 2 weeks of treatment): 3 kilos
- tremor and rigidity ([1]; first patient, after treatment): improved
- memory loss and mental state ([1]; first patient, after treatment, permitted a decrease of daily 1-dopa dose): improved
- time taken to lift foot to knee and return it to the floor 10 times ([1]; first patient, either leg, two weeks after treatment, 58 s (R) 65 s (L) before treatment): 44 s
- latency to touch knee with foot and return to the floor 10 times ([1]; second patient, bright light (1000 lux) 1 hour morning and night plus Atenolal 50 mg, after 5 weeks of treatment, FIG. 26): improved dramatically

Structure (SMILES): COc1ccc2c(c1)C(CCNc1cccc([N+](=O)[O-])c1[N+](=O)[O-])CN2 (stereo not shown) [ML-23]
- number of changes in head movement ([2]; ML-23 oral 5 mg/kg twice daily for 52 days, vehicle 9.5, p=0.006): 19.8
- horizontal movement at night ([2]; ML-23 oral 5 mg/kg twice daily for 52 days, vehicle 35 counts, p=0.01): 80 counts per 30 minutes
- vertical movement ([2]; ML-23 oral 5 mg/kg twice daily for 52 days, vehicle 308, p-0.01): 594 per 30 minutes
- intake of dry food ([2]; ML-23 oral, vehicle 1 gram per day, p=0.0001): 3 grams per day
- psychotic features score (agitation, frantic non-regulatory biting, vocalization, obstinate progression) ([2]; positive symptoms 48 hours after MPTP treatment, oral ML-23, vehicle score=10, p=0.0005): 2.5
- overall clinical rating of Parkinsonian behavior ([2]; scale 0= normal to 20= severely Parkinsonian, ML-23 oral 5 mg/kg twice daily, vehicle 8.4, p-0.006): 1.4
- horizontal and vertical movement, particularly at night (6-OHDA treated rats; ML-23 3 mg/kg ip): significantly improved
- overall performance versus vehicle following 6-ODHA injection (6-OHDA treated rats; ML-23 3 mg/kg ip): performed better than those treated with vehicle
- body weight loss (6-OHDA treated rats; [6]): prevented the severe body weight loss
- development of severe motor impairment (6-OHDA treated rats; [6]): prevented the development of severe motor impairment
- survival / recovery (6-OHDA treated rats; ML-23 3 mg/kg ip, 3 out of 7 animals in the 6-ODHA/vehicle group died within 6 days): all rats treated with ML-23 recovered
- latency to perform the 3 motor tests (retract a limb, step, ambulate) (6-OHDA treated rats; ML-23 3 mg/kg ip, test and recovery periods): improved

Structure (SMILES): O=C(NCCc1cccc2ccccc12)C1CCC1 [S-20928]
- body weight (most resilient consequence of DA degeneration) (6-OHDA treated rats; S-20928 1 mg/kg ip): capable of repairing
- morbidity of the disease (6-OHDA treated rats; S-20928 1 mg/kg ip): decreases the morbidity of the disease
- survival time (6-OHDA treated rats; S-20928 1 mg/kg ip): increases survival time

Structure (SMILES): COc1ccc2[nH]cc(CCNC(C)=O)c2c1 [melatonin]
- amelioration of the clinical features of Parkinson's disease ([3]; daily doses of 1000-1200 mg of melatonin per day, ref (18)): 20-36%
- tremor ([3]; daily doses of 1000-1200 mg of melatonin per day, ref (19)): significant reduction in tremor
- cardinal features of Parkinson's disease, replication study ([3]; similar doses over the same time period, ref (20)): did not improve the cardinal features
- body weight gain ([4]; melatonin implants vs nylon, MPTP 7 mg/kg i.p. on day 4, p=0.0201, FIG. 22A/B): did not gain as much weight
- ability to step, assessed during the night ([4]; melatonin implants vs nylon, p=0.0238, FIG. 24): significant decrement in the ability to step
- motor impairment after MPTP (open field locomotion) ([4]; melatonin pellets vs nylon, overall performance p=0.0344, night trend p=0.0638, FIG. 23A/B): increased the motor impairment
- reduction in open field performance relative to animals implanted with inert nylon ([5]; melatonin implants after 6-OHDA): more than twice as much
- loss of body weight after 6-OHDA ([5]; melatonin implants vs nylon implants, day 16 to end of experiment, p=0.0143, FIG. 14): more severe loss of body weight
- overall change in open field performance and that during the test session ([5]; melatonin implants vs nylon implants, p=0.0022, FIGS. 15A and B): significantly worse
- performance on the 3 motor tests (limb retraction, step, ambulate) ([5]; melatonin implants vs nylon, FIGS. 16-18): slower than the animals implanted with nylon although not significant

Source: patent publication US20020068692A1, “Method for the treatment of neurological or neuropsychiatric disorders” (priority 1996, published 2002)
